Measured values as given in ChEMBL document CHEMBL1201862, “PubChem BioAssay data set” (2004).
Activity calls are given as the source filed them.

What was measured:
[1] = tested on: Streptococcus sp. 'group A'; assay: growth inhibition of control SK(-) GAS strain, dose response, counter-screen for streptokinase expression inhibitor project, luminescence, kanamycin, BacTiterGlo, confirmation (AID 1900); type: functional, organism-based
[2] = biological target: T1, Streptokinase A (Streptococcus pyogenes serotype M1, UniProt P10520); assay: S. pyogenes streptokinase expression inhibitors, potency, dose response, plasminogen activation absorbance, OD405 (AID 1914); type: functional, Streptococcus pyogenes M1 GAS;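 also: secreted streptokinase activity via plasminogen activation per viability signal from cell pellet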
T1 sequence (P10520 whole entry): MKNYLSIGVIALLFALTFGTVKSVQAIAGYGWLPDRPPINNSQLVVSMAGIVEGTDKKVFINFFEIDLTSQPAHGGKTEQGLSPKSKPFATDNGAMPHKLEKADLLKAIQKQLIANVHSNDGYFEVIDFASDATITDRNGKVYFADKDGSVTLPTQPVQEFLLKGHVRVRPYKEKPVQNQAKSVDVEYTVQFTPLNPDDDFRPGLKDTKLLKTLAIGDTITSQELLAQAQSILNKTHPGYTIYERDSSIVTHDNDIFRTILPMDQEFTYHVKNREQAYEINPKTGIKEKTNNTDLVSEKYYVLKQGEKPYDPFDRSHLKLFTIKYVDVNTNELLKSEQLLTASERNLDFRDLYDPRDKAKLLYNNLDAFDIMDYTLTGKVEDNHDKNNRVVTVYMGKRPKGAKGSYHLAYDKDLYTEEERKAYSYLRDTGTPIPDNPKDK

[3] = tested on: Streptococcus; assay: Group A Streptococcus viability loss, dose response, counter-screen for streptokinase expression inhibitor project, luminescence, BacTiterGlo (AID 1915); type: functional, organism-based;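 also: potency for reduction of bacterial viability or growth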
[4] = biological target: T2, Caspase-3 (Homo sapiens, UniProt P42574); type: functional;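 also: Dose-response selectivity test against caspase-3 for candidate inhibitors of sentrin-specific proteases (SENPs)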
T2 sequence (P42574 whole entry): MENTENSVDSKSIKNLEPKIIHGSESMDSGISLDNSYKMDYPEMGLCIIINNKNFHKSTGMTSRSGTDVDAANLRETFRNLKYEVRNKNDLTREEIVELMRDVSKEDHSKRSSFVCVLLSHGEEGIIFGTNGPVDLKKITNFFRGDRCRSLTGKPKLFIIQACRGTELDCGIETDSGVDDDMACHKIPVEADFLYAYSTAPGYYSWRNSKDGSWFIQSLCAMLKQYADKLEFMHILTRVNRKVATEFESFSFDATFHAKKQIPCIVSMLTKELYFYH

[5] = biological target: T3, Sentrin-specific protease 7 (Homo sapiens, UniProt Q9BQF6); type: functional;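 also: Luminescence-based dose-response confirmation of ultra-high-throughput screening hits, measuring inhibition of SENP7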
T3 sequence (Q9BQF6 whole entry): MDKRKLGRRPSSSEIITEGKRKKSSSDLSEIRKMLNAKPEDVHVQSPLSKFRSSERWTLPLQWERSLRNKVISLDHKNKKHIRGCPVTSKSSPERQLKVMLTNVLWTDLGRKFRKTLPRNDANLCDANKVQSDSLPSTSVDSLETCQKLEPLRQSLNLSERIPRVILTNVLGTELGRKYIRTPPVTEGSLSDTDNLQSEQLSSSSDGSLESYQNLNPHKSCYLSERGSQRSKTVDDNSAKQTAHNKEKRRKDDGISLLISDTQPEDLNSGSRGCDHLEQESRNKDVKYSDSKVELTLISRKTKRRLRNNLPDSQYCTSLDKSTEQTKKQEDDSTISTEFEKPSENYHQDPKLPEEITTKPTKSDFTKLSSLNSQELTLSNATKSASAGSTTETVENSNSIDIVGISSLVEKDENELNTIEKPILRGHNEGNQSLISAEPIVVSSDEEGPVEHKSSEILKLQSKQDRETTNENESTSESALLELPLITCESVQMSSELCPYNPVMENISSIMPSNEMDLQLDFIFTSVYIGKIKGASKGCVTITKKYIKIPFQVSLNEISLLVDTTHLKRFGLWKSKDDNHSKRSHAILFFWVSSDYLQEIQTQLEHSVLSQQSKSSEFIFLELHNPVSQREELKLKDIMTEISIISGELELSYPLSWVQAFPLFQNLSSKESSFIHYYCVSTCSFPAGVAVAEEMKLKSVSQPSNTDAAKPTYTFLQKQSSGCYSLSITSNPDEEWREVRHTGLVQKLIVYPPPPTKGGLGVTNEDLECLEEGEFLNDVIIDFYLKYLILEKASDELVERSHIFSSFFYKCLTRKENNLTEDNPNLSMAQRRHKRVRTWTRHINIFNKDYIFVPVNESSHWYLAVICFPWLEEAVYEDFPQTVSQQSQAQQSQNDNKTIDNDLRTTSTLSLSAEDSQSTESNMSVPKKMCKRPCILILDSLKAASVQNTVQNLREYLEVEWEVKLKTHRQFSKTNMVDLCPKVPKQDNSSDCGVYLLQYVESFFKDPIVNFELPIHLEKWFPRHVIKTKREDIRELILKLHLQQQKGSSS

[6] = biological target: T4, Sentrin-specific protease 6 (Homo sapiens, UniProt Q9GZR1); type: functional;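 also: Luminescence-based dose-response confirmatory assay of SENP6 inhibition, following up an ultra-high-throughput screen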
T4 sequence (Q9GZR1 whole entry): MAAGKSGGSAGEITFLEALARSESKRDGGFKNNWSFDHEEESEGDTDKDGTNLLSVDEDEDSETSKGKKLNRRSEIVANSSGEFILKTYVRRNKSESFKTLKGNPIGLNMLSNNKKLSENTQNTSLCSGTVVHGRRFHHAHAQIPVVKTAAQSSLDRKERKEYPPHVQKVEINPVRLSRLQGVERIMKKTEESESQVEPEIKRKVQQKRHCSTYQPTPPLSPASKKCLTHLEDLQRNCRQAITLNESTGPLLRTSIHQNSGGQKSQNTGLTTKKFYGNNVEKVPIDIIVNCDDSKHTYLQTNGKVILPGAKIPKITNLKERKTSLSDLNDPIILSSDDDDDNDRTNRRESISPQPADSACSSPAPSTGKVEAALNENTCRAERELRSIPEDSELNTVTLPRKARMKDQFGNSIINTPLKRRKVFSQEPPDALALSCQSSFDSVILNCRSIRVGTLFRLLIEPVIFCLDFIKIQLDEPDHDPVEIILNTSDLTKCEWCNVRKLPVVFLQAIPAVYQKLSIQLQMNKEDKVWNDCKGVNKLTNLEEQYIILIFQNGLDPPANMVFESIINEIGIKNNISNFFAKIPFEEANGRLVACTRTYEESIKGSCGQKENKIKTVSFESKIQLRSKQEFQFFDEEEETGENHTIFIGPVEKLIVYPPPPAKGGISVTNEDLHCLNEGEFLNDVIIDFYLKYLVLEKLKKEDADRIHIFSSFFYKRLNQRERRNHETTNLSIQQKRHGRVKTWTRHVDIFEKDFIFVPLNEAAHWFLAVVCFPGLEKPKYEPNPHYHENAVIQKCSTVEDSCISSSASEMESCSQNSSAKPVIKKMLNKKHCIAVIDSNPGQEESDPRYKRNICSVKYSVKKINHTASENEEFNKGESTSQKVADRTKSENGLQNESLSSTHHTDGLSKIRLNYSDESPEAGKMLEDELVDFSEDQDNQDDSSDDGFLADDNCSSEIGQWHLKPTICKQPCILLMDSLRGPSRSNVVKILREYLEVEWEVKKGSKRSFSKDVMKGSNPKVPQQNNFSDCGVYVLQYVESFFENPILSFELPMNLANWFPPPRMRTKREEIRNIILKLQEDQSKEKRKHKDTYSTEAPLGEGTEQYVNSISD

[7] = biological target: T5, Sentrin-specific protease 8 (Homo sapiens, UniProt Q96LD8); type: functional;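 also: luminescence read-out of SENP8 inhibition, dose-response confirmation following an ultra-high-throughput screen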
T5 sequence (Q96LD8 whole entry): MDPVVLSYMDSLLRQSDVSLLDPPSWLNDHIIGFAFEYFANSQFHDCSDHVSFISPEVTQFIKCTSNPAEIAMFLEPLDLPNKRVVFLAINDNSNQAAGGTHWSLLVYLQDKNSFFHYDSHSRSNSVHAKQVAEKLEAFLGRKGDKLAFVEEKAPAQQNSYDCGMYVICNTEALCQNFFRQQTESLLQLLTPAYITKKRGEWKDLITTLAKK

[8] = inhibitors of HIV Env-driven cell fusion, dose response, cherry-pick (AID 652057); type: functional, cell-based
[9] = ZM109 Env clade C HIV-1 fusion inhibitors, dose response, HeLa effector, CEM target cells, luciferase, cherry-pick (AID 652058); type: functional, cell-based
[10] = off-target signal loss in HeLa-CEM21 co-culture – HeLa F-luc CTL cells, cherry-picked, counter-screen for HIV-1 Env fusion inhibitor project, dose response (AID 652040); type: functional, cell-based;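 also: potency for signal decrease marking cytotoxic or nonspecific inhibition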
[11] = inhibitors of clade B AD8 Env fusion, dose response, cell-based, cherry-pick (AID 652062); type: functional;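 also: luciferase signal from cell-cell fusion driven by HIV-1 clade B AD8 Env; potency is for inhibitors of fusion seen as a drop in luminescence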
[12] = Luminescence Cell-Based Dose Confirmation HTS to Identify Activators of 5'UTR Stem-Loop Driven Alpha-Synuclein mRNA Translation in H4 Neuroglioblastoma Cells. [Related pubchem assays: 1829 (Project Summary), 1814 (Primary HTS)]; type: functional
[13] = Luminescence Cell-Based Dose Response HTS to Identify Activators of Luciferase Translation or Activity in H4 […] Cells. [Related pubchem assays: 1829 (Project Summary), 1814 (Primary HTS)]; type: functional
[14] = tested on: H4; assay: Luminescence Cell-Based Dose Response HTS to Identify Activators of 5'UTR Stem-Loop Driven Prion Protein mRNA Translation in H4 Neuroglioblastoma Cells. [Related pubchem assays: 1829 (Project Summary), 1814 (Primary HTS)]; type: functional; conditions: Homo sapiens
[15] = HeLa cell cytotoxicity, dose response, cytotoxicity control for MgcRacGAP inhibitor project (AID 624300); type: functional
[16] = T. cruzi growth inhibition in host cells, dose response, cell-based, plate reader, dry powder, set 2 (AID 652275); type: functional
[17] = biological target: Paired box protein Pax-8 (Homo sapiens, UniProt Q06710); assay: inhibitors of PAX8-driven TPO luciferase reporter, dose response, RMG-I cells, cherry-pick (AID 687027); type: functional, cell-based;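 also: luciferase reporter driven by Pax8 target thyroperoxidase promoter measured by SteadyGlo luminescence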
Sequence of Paired box protein Pax-8 (Q06710 whole entry): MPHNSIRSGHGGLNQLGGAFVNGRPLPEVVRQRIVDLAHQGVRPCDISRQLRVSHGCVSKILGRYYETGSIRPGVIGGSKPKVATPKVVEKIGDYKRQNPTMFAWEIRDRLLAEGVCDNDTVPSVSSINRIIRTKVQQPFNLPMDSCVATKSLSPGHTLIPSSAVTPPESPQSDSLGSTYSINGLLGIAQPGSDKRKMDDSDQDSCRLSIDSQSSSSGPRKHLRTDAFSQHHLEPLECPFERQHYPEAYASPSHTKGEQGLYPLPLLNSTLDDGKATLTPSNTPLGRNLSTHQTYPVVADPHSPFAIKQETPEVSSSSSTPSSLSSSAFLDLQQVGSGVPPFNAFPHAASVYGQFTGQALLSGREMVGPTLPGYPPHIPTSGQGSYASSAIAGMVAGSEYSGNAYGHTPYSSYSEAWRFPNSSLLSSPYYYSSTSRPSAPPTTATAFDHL

[18] = HEp-2 cell cytotoxicity, dose response, cytotoxicity control for RSV inhibitor project, HTS (AID 2410); type: functional; conditions: human respiratory syncytial virus
[19] = cells
[20] = biological target: T6, Rac GTPase-activating protein 1 (Homo sapiens, UniProt Q9H0H5); assay: MgcRacGAP GTPase-activating activity inhibitors, confirmation, biochemical, ADP Hunter fluorescence, primary and confirmatory (AID 624330); type: functional
T6 sequence (Q9H0H5 whole entry): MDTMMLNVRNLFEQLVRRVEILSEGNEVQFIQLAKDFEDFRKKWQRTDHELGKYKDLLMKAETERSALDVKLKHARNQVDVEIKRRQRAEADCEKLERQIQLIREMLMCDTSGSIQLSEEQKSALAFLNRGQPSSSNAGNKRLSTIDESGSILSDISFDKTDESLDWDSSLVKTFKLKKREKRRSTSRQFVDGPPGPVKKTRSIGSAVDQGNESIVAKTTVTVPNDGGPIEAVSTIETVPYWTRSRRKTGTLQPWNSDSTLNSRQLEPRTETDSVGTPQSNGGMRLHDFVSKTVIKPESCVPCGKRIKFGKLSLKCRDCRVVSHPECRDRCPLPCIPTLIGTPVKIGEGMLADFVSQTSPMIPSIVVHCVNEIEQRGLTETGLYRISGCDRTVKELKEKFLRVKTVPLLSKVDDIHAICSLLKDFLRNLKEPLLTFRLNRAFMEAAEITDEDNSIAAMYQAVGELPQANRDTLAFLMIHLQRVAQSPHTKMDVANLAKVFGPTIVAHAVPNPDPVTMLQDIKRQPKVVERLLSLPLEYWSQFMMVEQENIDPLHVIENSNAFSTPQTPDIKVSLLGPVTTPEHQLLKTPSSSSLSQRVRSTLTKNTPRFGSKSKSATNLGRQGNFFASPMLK

## CCn1c(SCc2ccccc2Cl)nc2ccccc21
[1]
  EC50: 16.5 µM (active)
[2]
  EC50: 21.4 µM (active)
[3]
  EC50: > 150 µM (not active)
[4]
  IC50: 40.6 µM (active)
[5]
  IC50: 11.3 µM (active)
[6]
  IC50: 17.5 µM (active)
[7]
  IC50: 29.3 µM (active)

## CN(C[C@H](Cc1ccccc1)N(C[C@H](Cc1ccccc1)N(CC1(c2ccccc2)CC1)N=O)N=O)N=O
[8]
  AC50: 2.98 µM (active)
[9]
  AC50: 3.53 µM (active)
[10]
  AC50: 3.05 µM (active)
[11]
  AC50: 7.28 µM (active)

## Cc1cccc(C(=N)NOC(=O)N2c3ccccc3Sc3ccccc32)c1
[12]
  EC50: > 120 µM (not active)
[13]
  EC50: > 120 µM (not active)
[14]
  EC50: > 120 µM (not active)
[15]
  CC50: 92.6 µM (active)

## CN(C)CC#Cc1cccc(-c2nc(C(=O)N3CCN(Cc4ccccc4)CC3)cc3c2[C@H](CCO)N([S+]([O-])C(C)(C)C)C3)c1 (stereo partly drawn)
[16]
  AC50: 6.1 µM (active)

## Cc1ccc2c(c1)c1c3n2CCN(CC(N)=O)C3CCC1 (stereo not drawn)
[17]
  AC50: 6.82 µM (active)
[10]
  AC50: 7.87 µM (active)

## CCOc1ccc(-c2cc(C(=O)O)c3ccccc3n2)c(OCC)c1
[18]
  CC50: 42 µM (active)
[19]
  IC50: 19.7 µM (active)

## COc1cc(-c2ncc3ccccn23)cc(OC)c1OC
[15]
  CC50: 100 µM (active)
[20]
  IC50: 123 µM (active)

## Cc1ccccc1CN(C)C[C@H]1Oc2c(NC(=O)c3ccncc3)cccc2C(=O)N([C@@H](C)CO)C[C@@H]1C
[16]
  AC50: 0.0559 µM (active)

## CCOC(=O)Cc1c(C)c2c(O)cc(O)cc2oc1=O
[18]
  CC50: 47.7 µM (active)
[19]
  IC50: 15.1 µM (active)

## COc1ccc(S(=O)(=O)N(C)C[C@H]2OCCCC[C@H](C)Oc3ccc(N(C)C)cc3C(=O)N([C@H](C)CO)C[C@@H]2C)cc1
[16]
  AC50: 9.32 µM (active)

## COc1cc(C(C[N+](=O)[O-])c2c(N)n(C)c(=O)n(C)c2=O)ccc1O (stereo not drawn)
[15]
  CC50: 80.4 µM (active)
[20]
  IC50: 111 µM (active)

## COc1ccc(NC(=O)Nc2ccc3c(c2)N(C)C(=O)CS3)cc1Cl
[8]
  AC50: 31.1 µM (active)
[9]
  AC50: 3.37 µM (active)
[10]
  AC50: > 70 µM (inactive)
[11]
  AC50: 11.8 µM (active)

## COc1ccc2nc(/C=N/NC(=O)[C@H](C)NC(=O)OC(C)(C)C)ccc2c1
[19]
  IC50: 31.9 µM (active)

## Cc1ccccc1S(=O)(=O)N1C[C@H]2[C@H]3C(=O)N(C4CCCCC4)C(=O)[C@H]3CC(=O)[C@H]2[C@@H]1c1ccc(Cl)cc1
[8]
  AC50: 0.396 µM (active)
[9]
  AC50: 0.874 µM (active)
[10]
  AC50: 1.2 µM (active)
[11]
  AC50: 2.81 µM (active)

## CC(C)N1C[C@@H](CN(C)Cc2ccc(Cl)cc2)Oc2c(NC(=O)c3ccncc3)cc(F)cc2C1=O
[16]
  AC50: 0.00326 µM (active)
